The results in this text go back to patent US20250130239A1, “PROTEIN DEGRADER” (University of Dundee, priority 2021, published 2025).

Assay [1] deals with T1, BromoTag-Brd2 (Homo sapiens, UniProt O60885+P40337, L387A).
T1 construct: comprising residues 368-440 of human Brd4; Brd2 (endogenous protein, fusion partner in the same polypeptide); eGFP-P2A (upstream marker in the knock-in cassette) (N, cleaved yes); expressed in transfected cells; host or cells: HEK293, heterozygous CRISPR knock-in at the endogenous BRD2 locus
Description: Time-course degradation assay in heterozygous BromoTag-Brd2 HEK293 cells. The settings on record: 500 nM 47, 1 μM 48; over 36 h. The class given is cell-based. Here is the method: Time-course Degradation Assay. Time-course degradation assays using PROTACs AGB1, AGB2, and AGB3 were performed on the genotype verified heterozygous BromoTag-Brd2 HEK293 cell line. Heterozygous BromoTag-Brd2 HEK293 cells were plated at a density of 5×10^5 cells per well of a 6 healthy plate a day prior to initiation of the Timecourse assay. PROTAC's AGB1 & AGB2 were diluted in DMSO to a concentration of 1 mM prior to being further diluted 1:2000 in 2 mL of DMEM to a concentration of 500 nM per timepoint. PROTAC AGB3 was diluted in DMSO to a concentration of 2 mM prior to being further diluted 1:2000 in 2 mL of DMEM to a concentration of 1 μM per timepoint. Timepoint range was between 0-36 h. Treatment was applied in a staggered fashion to enable all timepoints to be harvested at the same time.
Western Blotting. All cells were harvested on ice with RIPA lysis, and extraction buffer (ThermoFisher Scientific, 89901) supplemented with protease inhibitor cocktail (Merck, 11697498001) and Benzonase® Nuclease (Sigma, E1014) before being store at −20° C. prior to use. Total protein quantity was determined using the BCA protein assay (#23225, Pierce, Rockford, Illinois). Protein concentration was determined using the BCA assay (ThermoFisher Scientific, 23225). Samples were then prepared and loaded onto NuPAGE™ 4-12% Bis-Tris Midi gels (ThermoFisher Scientific, WG1403A), followed by the transfer of the proteins onto nitrocellulose membranes (EMD Millipore). The membranes were blocked for 1 h prior to incubation with the primary antibodies using 5% Milk TBST. Membranes were probed for Brd2 (Abcam, Ab139690, 1:1000), Brd3 (Abcam, Ab50818, 1:4000), Brd4 (Abcam, Ab128874, 1:1000) or our polyclonal Brd4^BD2 L387A antibody. […] All western blots were analysed for band intensities using Image Lab from Bio-Rad (LI-COR, Biosciences). The data extracted from these blots were then plotted and analysed using Prism (v. 8.2.0, GraphPad).

Assay [2] concerns the target T2, VHL, compound preincubated with Brd4^BD2 L387A (Homo sapiens, UniProt O60885+P40337, L387A).
T2 construct: N-terminally Hiss-tagged VHL (54-213); N-terminally His6-tagged Brd4-BD2^L387A (333-460) was expressed in E. coli; His6 (N, cleaved yes); made in house; host or cells: E. coli
Description: Fluorescence polarization competitive binding assay, ternary complex binding. As to conditions: displacement of HIF-1a peptide probe, read-out: ternary binding affinity Kd. Here is the method:
(§1) Protein Expression and Purification. […] The complex was further purified by anion exchange followed by gel filtration chromatography.
(§2) Fluorescence Polarization Binding Assay. […] All components were dissolved from stock solutions using 100 mM Bis-Tris propane, 100 mM NaCl, 1 mM DTT, pH 7.0, to yield a final assay volume of 15 μL. DMSO was added as appropriate to ensure a final concentration of 2% v/v. […] Percentage displacement values were obtained by normalization of controls were plotted against Log[Compound]. IC50 values were determined for each titration using nonlinear regression analysis with Prism (v. 9.1.0, GraphPad). […] Cooperativity values (a) for each PROTAC were calculated using the ratio: α=binary Kd (−bromodomain)/ternary Kd (+bromodomain).
(Polarisation of emitted light reports the rotation of a fluorescent probe.)

Assay [3] concerns the target T3, Brd3 (Homo sapiens, UniProt Q15059).
T3 construct: endogenous Brd3 and Brd4; endogenous in cells; host or cells: heterozygous BromoTag-Brd2 HEK293 cells
The assay can be described thus: Off-target degradation of Brd3 (western blot) in BromoTag-Brd2 HEK293 cells. It counts as cell-based. Here is the method:
Dose-response Degradation Assays. All dose-response degradation assays were performed on the genotype verified heterozygous BromoTag-Brd2 HEK293 cell line. Heterozygous BromoTag-Brd2 HEK293 cells were plated at a density of 5×10^5 cells per well of a six healthy plate a day before initiation of the titration experiment. PROTAC compounds were dissolved in DMSO at a concentration of 10 mM, from these stock concentrations, PROTAC compounds were diluted to appropriate concentrations using DMSO in the range of 10 μM-1 nM. The compounds were then added to a 2 mL of DMEM (Invitrogen, Carlsebad, CA, USA) supplemented with 10% (v/v) Fetal bovine serum (FBS) (Thermo Fisher, Waltham, MA, USA) and 1% (v/v) penicillin/streptomycin (pen/strep) (#15140122, Thermo Fisher, Waltham, MA, USA) and added to the cells at initiation of the experiment. Control compounds such as MZ1, cis-MZ1 were similarly dissolved in DMSO to the appropriate concentration. […]
(§3) Western Blotting. […] Total protein quantity was determined using the BCA protein assay (#23225, Pierce, Rockford, Illinois). Protein concentration was determined using the BCA assay (ThermoFisher Scientific, 23225). […] All western blots were analysed for band intensities using Image Lab from Bio-Rad (LI-COR, Biosciences). The data extracted from these blots were then plotted and analysed using Prism (v. 8.2.0, GraphPad).
On the technique in general: A western blot detects proteins with antibodies after separation by electrophoresis.

The target in assay [4] is T4, VHL (VCB protein) (Homo sapiens, UniProt P40337).
T4 construct: N-terminally Hiss-tagged VHL (54-213); His6 (N, cleaved yes); made in house; host or cells: E. coli
The assay can be described thus: Fluorescence polarization competitive binding assay, binary binding. The settings on record: compound alone; displacement of HIF-1a peptide probe; read-out: binary affinity to VHL Kd. Here is the method:
as §1, §2

For assay [5], the target named is T1, BromoTag-Brd2. Description: Dose-response degradation assay (western blot, 6 h) in heterozygous BromoTag-Brd2 HEK293 cells. It counts as cell-based. The settings on record: 6 h; for pDC50: 8-point 10 μM-1 nM, mean (±S.E.) of two repeats. Here is the method: Dose-response Degradation Assays. All dose-response degradation assays were performed on the genotype verified heterozygous BromoTag-Brd2 HEK293 cell line. Heterozygous BromoTag-Brd2 HEK293 cells were plated at a density of 5×10^5 cells per well of a six healthy plate a day before initiation of the titration experiment. PROTAC compounds were dissolved in DMSO at a concentration of 10 mM, from these stock concentrations, PROTAC compounds were diluted to appropriate concentrations using DMSO in the range of 10 μM-1 nM. […] Control compounds such as MZ1, cis-MZ1 were similarly dissolved in DMSO to the appropriate concentration. […] Cells were washed twice with PBS before being harvested.
Western Blotting. […] The membranes were blocked for 1 h prior to incubation with the primary antibodies using 5% Milk TBST. […] Following overnight incubation with the primary antibodies at 4° C., the membranes were incubated with secondary antibodies (Anti-rabbit, Abcam AB216773, 1:5000 or anti-mouse, Abcam AB216774, 1:5000) and hFAB™ Rhodamine Anti-Tubulin Antibody (Biorad, 12004165, 1:10000) for one h and then imaged with a Bio-Rad imager (LI-COR Biosciences). All western blots were analysed for band intensities using Image Lab from Bio-Rad (LI-COR, Biosciences). The data extracted from these blots were then plotted and analysed using Prism (v. 8.2.0, GraphPad).

In assay [6] the test system is untagged Brd2 and endogenous Brd3 and Brd4. Description: Off-target degradation of endogenous BET proteins (western blot) in BromoTag-Brd2 HEK293 cells. The settings on record: 1 nM to 10 μM; 6 h. It counts as cell-based, human. Here is the method:
Dose-response Degradation Assays. All dose-response degradation assays were performed on the genotype verified heterozygous BromoTag-Brd2 HEK293 cell line. Heterozygous BromoTag-Brd2 HEK293 cells were plated at a density of 5×10^5 cells per well of a six healthy plate a day before initiation of the titration experiment. PROTAC compounds were dissolved in DMSO at a concentration of 10 mM, from these stock concentrations, PROTAC compounds were diluted to appropriate concentrations using DMSO in the range of 10 μM-1 nM. The compounds were then added to a 2 mL of DMEM (Invitrogen, Carlsebad, CA, USA) supplemented with 10% (v/v) Fetal bovine serum (FBS) (Thermo Fisher, Waltham, MA, USA) and 1% (v/v) penicillin/streptomycin (pen/strep) (#15140122, Thermo Fisher, Waltham, MA, USA) and added to the cells at initiation of the experiment. Control compounds such as MZ1, cis-MZ1 were similarly dissolved in DMSO to the appropriate concentration. All titration experiment were performed for a total of 6 hours prior to being harvested and were kept at 37° C., 5% CO2, and 95% humidity once treatment was applied until right before harvesting. Cells were washed twice with PBS before being harvested.
as §3
Development of a Knock-in Cell Line with BromoTag fused to endogenous Brd2 using CRISPR. […] To this end, the endogenous BET family protein Brd2 was chosen as a model target, due to the availability of well-established antibody for Brd2 detection, and expression of a single protein isoform as well detected band in the western blot (Filippakopoulos, P.; Knapp, S., Nat Rev Drug Discov. 2014, 13 (5), 337-356). […]

Turning to `CC[C@@H](C(=O)OCCOCCCOCC(=O)N[C@H](C(=O)N1C[C@H](O)C[C@H]1C(=O)N[C@@H](C)c1ccc(-c2scnc2C)cc1)C(C)(C)C)[C@@H]1N=C(c2ccc(Cl)cc2)c2c(sc(C)c2C)-n2c(C)nnc21` (single isomer, unassigned) [AGB2 (47)], the “extent of BromoTag-Brd2 degradation in the time course” value in assay [1] is reported as “near complete target degradation”. In addition, the Kd came to 12 nM in assay [2] and 45 nM in assay [4]. For the same compound, in assay [3] (at 100-1,000 nM), the “off-target degradation of Brd3” value is listed as “minor off-target degradation”.
In the case of `CC[C@@H](C(=O)NCCOCCOCCOCC(=O)N[C@H](C(=O)N1C[C@H](O)C[C@H]1C(=O)NCc1ccc(-c2scnc2C)cc1)C(C)(C)C)[C@@H]1N=C(c2ccc(Cl)cc2)c2c(sc(C)c2C)-n2c(C)nnc21` (single isomer, unassigned) [AGB3 (48)], the “extent of BromoTag-Brd2 degradation in the time course” value in assay [1] was around 80%. Also, the Kd was found to be 9 nM in assay [2] and 102 nM in assay [4]. The same compound registered a DC50 in assay [5] (range over the two antibodies) of 210 to 290 nM. Also, the pDC50 in assay [5] (Ab: Brd4^BD2 L387A, single stereoisomers) is listed as 6.5 ± 0.3; in assay [5] (Ab: BromoTag-Brd2, single stereoisomers) it was 6.7 ± 0.1. Moreover, the Dmax in assay [5] (HEK293, Ab: Brd4^BD2 L387A, single stereoisomers) stood at 92%.
As to `CC[C@@H](C(=O)OCCOCCCOCC(=O)N[C@H](C(=O)N1C[C@H](O)C[C@H]1C(=O)N[C@@H](C)c1ccc(-c2scnc2C)cc1)C(C)(C)C)[C@@H]1N=C(c2ccc(Cl)cc2)c2c(sc(C)c2C)-n2c(C)nnc21` (relative stereo) [ET-OARV-771 (25), 2-(3-(2-(((S)-1-((2S,4R)-4-hydroxy-2-(((S)-1-(4-(4-methylthiazol-5-yl)phenyl)ethyl)carbamoyl)pyrrolidin-1-yl)-3,3-dimethyl-1-oxobutan-2-yl)amino)-2-oxoethoxy)propoxy)ethyl (R*)-2-((S*)-4-(4-chlorophenyl)-2,3,9-trimethyl-6H-thieno[3,2-f][1,2,4]triazolo[4,3-a][1,4]diazepin-6-yl)butanoate], the “off-target degradation of untagged Brd2 or the other endogenous BET proteins” value in assay [6] is given as “no observable off-target degradation”. The “off-target degradation of Brd3” value in assay [3] (at 1 μM, 6 h) is recorded as “minor off-target degradation”.

One may read the Kd as the equilibrium constant for the complex coming apart. By DC50 is commonly meant the midpoint of the concentration-degradation curve. A higher DC50 goes with degradation only at high concentration. For orientation: Dmax means the greatest extent of degradation seen.
